Measurements taken from ChEMBL document CHEMBL4130350, “Discovery, mechanism and metabolism studies of 2,3-difluorophenyl-linker-containing PARP1 inhibitors with enhanced in vivo efficacy for cancer therapy” (Eur J Med Chem, 2017).
Converted amounts (≈) assume the structure as drawn. The source made the active and inactive calls. No cut-off for these calls is given here.

Legend:
[1] = Cytotoxicity against BRCA2 deficient Chinese hamster VC8 cells after 3 days by CCK8 or SRB assay; format: functional, cell-based; settings: Cricetulus griseus, V-C8, 72 h
[2] = system: V79; assay: Cytotoxicity against BRCA2 expressing Chinese hamster V79 cells after 3 days by CCK8 or SRB assay; format: cell-based; settings: Cricetulus griseus, V79, 72 h
[3] = Solubility of the compound in water after 24 hrs by HPLC analysis; format: physicochemical
[4] = system: CAPAN-1; assay: Cell cycle arrest in human Capan1 cells assessed as accumulation at G0/G1 phase at 0.1 uM after 72 hrs by propidium iodide-staining based flow cytometry (reference value: 63.33%); format: functional
[5] = system: CAPAN-1; assay: Cell cycle arrest in human Capan1 cells assessed as accumulation at G2/M phase at 0.1 uM after 72 hrs by propidium iodide-staining based flow cytometry (reference value: 15.26%); format: functional
[6] = system: CAPAN-1; assay: Cell cycle arrest in human Capan1 cells assessed as accumulation at G0/G1 phase at 1 uM after 72 hrs by propidium iodide-staining based flow cytometry (reference value: 63.33%); format: functional
[7] = system: CAPAN-1; assay: Cell cycle arrest in human Capan1 cells assessed as accumulation at S phase at 1 uM after 72 hrs by propidium iodide-staining based flow cytometry (reference value: 21.42%); format: functional
[8] = system: CAPAN-1; assay: Cell cycle arrest in human Capan1 cells assessed as accumulation at G0/G1 phase at 10 uM after 72 hrs by propidium iodide-staining based flow cytometry (reference value: 63.33%); format: functional
[9] = system: CAPAN-1; assay: Cell cycle arrest in human Capan1 cells assessed as accumulation at S phase at 10 uM after 72 hrs by propidium iodide-staining based flow cytometry (reference value: 21.42%); format: functional
[10] = system: CAPAN-1; assay: Cell cycle arrest in human Capan1 cells assessed as accumulation at G2/M phase at 10 uM after 72 hrs by propidium iodide-staining based flow cytometry (reference value: 15.26%); format: functional
[11] = system: CAPAN-1; assay: Cell cycle arrest in human Capan1 cells after 72 hrs by propidium iodide-staining based flow cytometry; format: functional
[12] = molecular target: T1, Poly [ADP-ribose] polymerase 1 (Homo sapiens, UniProt P09874); assay: Inhibition of PARP1 in human Capan1 cells assessed as increase in phosphorylated ATM protein levels at 0.1 to 1 uM after 48 hrs by Western blot analysis; format: cell-based
T1 sequence (P09874 whole entry): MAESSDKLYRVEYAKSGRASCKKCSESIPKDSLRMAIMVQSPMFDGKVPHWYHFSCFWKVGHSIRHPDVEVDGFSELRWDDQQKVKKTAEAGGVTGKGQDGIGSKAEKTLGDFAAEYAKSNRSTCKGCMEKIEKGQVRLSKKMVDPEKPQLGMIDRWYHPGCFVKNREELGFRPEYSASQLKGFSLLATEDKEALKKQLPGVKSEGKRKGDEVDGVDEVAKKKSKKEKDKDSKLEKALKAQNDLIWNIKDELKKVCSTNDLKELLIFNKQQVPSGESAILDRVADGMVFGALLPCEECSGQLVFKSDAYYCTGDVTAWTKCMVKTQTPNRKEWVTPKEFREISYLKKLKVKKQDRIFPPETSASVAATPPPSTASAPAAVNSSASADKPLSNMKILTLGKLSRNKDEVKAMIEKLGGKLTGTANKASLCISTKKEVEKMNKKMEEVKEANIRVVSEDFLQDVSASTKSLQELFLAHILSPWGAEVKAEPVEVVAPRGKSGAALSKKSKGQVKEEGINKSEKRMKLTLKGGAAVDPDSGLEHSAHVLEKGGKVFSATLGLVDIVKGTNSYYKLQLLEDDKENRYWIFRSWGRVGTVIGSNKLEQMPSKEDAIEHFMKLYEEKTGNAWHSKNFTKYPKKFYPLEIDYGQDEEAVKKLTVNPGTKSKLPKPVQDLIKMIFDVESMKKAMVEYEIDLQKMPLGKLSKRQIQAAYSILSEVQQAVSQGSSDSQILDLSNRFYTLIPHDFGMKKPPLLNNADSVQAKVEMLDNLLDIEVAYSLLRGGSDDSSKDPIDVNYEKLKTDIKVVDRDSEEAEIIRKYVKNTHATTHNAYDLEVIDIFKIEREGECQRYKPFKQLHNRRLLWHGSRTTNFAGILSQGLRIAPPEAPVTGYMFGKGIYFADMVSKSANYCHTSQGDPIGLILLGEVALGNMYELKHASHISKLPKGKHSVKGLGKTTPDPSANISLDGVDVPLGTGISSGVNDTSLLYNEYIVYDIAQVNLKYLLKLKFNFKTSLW

[13] = system: CAPAN-1; assay: Effect on total ATM protein levels in human Capan1 cells at 0.1 to 1 uM after 48 hrs by Western blot analysis; format: ADME, cell-based; settings: capan-1, 48 h
[14] = molecular target: T1, Poly [ADP-ribose] polymerase 1; assay: Inhibition of PARP1 in human Capan1 cells assessed as increase in formation of phosphorylated ATM foci in cells at 10 uM after 48 hrs by confocal microscopy; format: cell-based
[15] = system: MDA-MB-436; assay: Induction of apoptosis in human MDA-MB-436 cells assessed as late apoptotic cells at 0.1 uM after 96 hrs in presence of pancaspase inhibitor Z-VAD-FMK by Annexin V-FITC/propidium iodide double-staining based flow cytometery (reference value: 5.11%); format: functional
[16] = system: MDA-MB-436; assay: Induction of apoptosis in human MDA-MB-436 cells assessed as early apoptotic cells at 1 uM after 96 hrs in presence of pancaspase inhibitor Z-VAD-FMK by Annexin V-FITC/propidium iodide double-staining based flow cytometery (reference value: 2.32%); format: functional
[17] = system: MDA-MB-436; assay: Induction of apoptosis in human MDA-MB-436 cells assessed as late apoptotic cells at 1 uM after 96 hrs in presence of pancaspase inhibitor Z-VAD-FMK by Annexin V-FITC/propidium iodide double-staining based flow cytometery (reference value: 5.11%); format: functional
[18] = system: MDA-MB-436; assay: Induction of apoptosis in human MDA-MB-436 cells after 96 hrs by Annexin V-FITC/propidium iodide double-staining based flow cytometery; format: functional, cell-based
[19] = system: MDA-MB-436; assay: Induction of apoptosis in human MDA-MB-436 cells assessed as caspase-3/7 activation at 0.1 to 1 uM after 72 hrs by Caspase-Glo 3/7 assay; format: functional, cell-based
[20] = system: Mus musculus; assay: Toxicity in nude BALB/cA mouse xenografted with human MDA-MB-436 cells harboring BRCA1 mutant assessed as mortality at 50 mg/kg, po administered once daily for 21 consecutive days measured twice per week; format: organism-based; settings: in vivo
[21] = system: Mus musculus; assay: Toxicity in nude BALB/cA mouse xenografted with human MDA-MB-436 cells harboring BRCA1 mutant assessed as weight loss at 50 mg/kg, po administered once daily for 21 consecutive days measured twice per week; format: organism-based; settings: in vivo
[22] = system: Mus musculus; assay: Toxicity in nude BALB/cA mouse xenografted with human Capan1 cells harboring BRCA2 mutant assessed as mortality at 40 mg/kg, po administered once daily for 21 consecutive days measured twice per week; format: organism-based; settings: in vivo
[23] = system: Mus musculus; assay: Toxicity in nude BALB/cA mouse xenografted with human Capan1 cells harboring BRCA2 mutant assessed as weight loss at 40 mg/kg, po administered once daily for 21 consecutive days measured twice per week; format: organism-based; settings: in vivo
[24] = Half life in Sprague-Dawley rat at 5 mg/kg, iv by LC-MS/MS analysis; format: ADME, organism-based; settings: in vivo
[25] = Half life in Sprague-Dawley rat at 10 mg/kg, po by LC-MS/MS analysis; format: ADME, organism-based; settings: in vivo
[26] = Clearance in Sprague-Dawley rat at 5 mg/kg, iv by LC-MS/MS analysis; format: ADME, organism-based; settings: in vivo
[27] = Volume of distribution in Sprague-Dawley rat at 5 mg/kg, iv by LC-MS/MS analysis; format: ADME, organism-based; settings: in vivo
[28] = Cmax in Sprague-Dawley rat at 5 mg/kg, iv by LC-MS/MS analysis; format: ADME, organism-based; design: dose 5 mg/kg, route intravenous; settings: in vivo
[29] = Cmax in Sprague-Dawley rat at 10 mg/kg, po by LC-MS/MS analysis; format: ADME, organism-based; design: dose 10 mg/kg, route oral; settings: in vivo
[30] = AUC in Sprague-Dawley rat at 5 mg/kg, iv by LC-MS/MS analysis; format: ADME, organism-based; settings: in vivo
[31] = AUC in Sprague-Dawley rat at 10 mg/kg, po by LC-MS/MS analysis; format: ADME, organism-based; settings: in vivo
[32] = Oral bioavailability in Sprague-Dawley rat at 10 mg/kg by LC-MS/MS analysis; format: ADME, organism-based; settings: in vivo
[33] = Protein binding in mouse plasma at 0.5 to 50 uM after 4 hrs by LC-MS/MS analysis; format: ADME, cell-free; settings: read-out: PPB (converted)
[34] = Elimination half-life in mouse liver microsomes at 2 uM up to 60 mins by LC-MS/MS analysis; format: ADME, microsome; settings: read-out: beta t1/2
[35] = Apparent permeability across apical to basolateral side in human Caco2 cells after 2 hrs by LC-MS/MS analysis; format: ADME, cell-based; settings: Caco-2
[36] = Apparent permeability across basolateral to apical side in human Caco2 cells after 2 hrs by LC-MS/MS analysis; format: ADME, cell-based; settings: Caco-2
[37] = Efflux ratio of apparent permeability in human Caco2 cells after 2 hrs by LC-MS/MS analysis; format: ADME, cell-based; settings: Caco-2
[38] = Apparent permeability across apical to basolateral side in human Caco2 cells assessed as drug recovery at 4701.8 pmol after 2 hrs by LC-MS/MS analysis; format: ADME, cell-based; settings: Caco-2, read-out: Drug recovery
[39] = molecular target: T1, Poly [ADP-ribose] polymerase 1; assay: Inhibition of PARP1 in BRCA2 deficient human Capan1 cells assessed as increase in DNA double stranded breaks by measuring gammaH2AX levels after 72 hrs by Western blot analysis
[40] = molecular target: T1, Poly [ADP-ribose] polymerase 1; assay: Inhibition of PARP1 in BRCA2 deficient human Capan1 cells assessed as increase in DNA double stranded breaks by measuring gammaH2AX levels after 48 hrs by Western blot analysis

**Q.** Which results are given for N#Cc1cccnc1N1CCN(C(=O)c2cc(Cc3n[nH]c(=O)c4ccccc34)cc(F)c2F)CC1?
**A.** IC50 [1]: 3 pM; IC50 [2]: 10 to 10.3 µM; solubility at 24 h [3]: 1.1 µg/mL (≈ 2.26 µM); Activity [4]: 55.92%; Activity [5]: 17.33%; Activity [6]: 22.38%; Activity [7]: 27.67%; Activity [8]: 5.15%; Activity [9]: 22.4%; Activity [10]: 72.45%; Activity [11]: Dose-dependent effect; inhibition [12]: Active; Activity [13]: Non-Toxic; inhibition [14]: Active; Activity [15]: 17.99%; Activity [16]: 6.61%; Activity [17]: 18.6%; Activity [18]: Dose-dependent effect; Activity [19]: Active; Activity [20]: Non-Toxic; Activity [21]: Non-Toxic; Activity [22]: Non-Toxic; Activity [23]: Non-Toxic; half-life [24]: 5.3 h; half-life [25]: 3 h; clearance [26]: 60 mL/min/kg; Vd [27]: 27.5 L/kg; Cmax [28]: 3260 ng/mL; Cmax [29]: 74.4 ng/mL; AUC [30]: 1380 ng·h/mL; AUC [31]: 130 ng·h/mL; bioavailability [32]: 4.7%; fraction unbound at 4 h, up to 50 µM [33]: 0.012; half-life at 2 µM [34]: 3 min; Papp A→B at 2 h [35]: 6.8 ×10⁻⁶ cm/s; Papp B→A at 2 h [36]: 34.1 ×10⁻⁶ cm/s; efflux ratio at 2 h [37]: 5; recovery at 2 h [38]: 91.5%; inhibition [39]: Dose-dependent effect; inhibition [40]: Dose-dependent effect
